Source: the NIST ThermoML archive (doi:10.1021/acs.jced.6b00279)
Numbers after ± are expanded uncertainties.

Conditions: Crystal; visual observation

Normal melting temperature: 105.00 ± 2 °C
Structure (SMILES): CCCC[n+]1ccccc1.[Br-] [1-butylpyridinium bromide]
